Common to all, as to type: cell-based
Data set [1] deals with Candida albicans (ATCC 10231). Nature of the data set: Antimicrobial activity (MFC), C. albicans. Conditions: saline pH 7, 1 h at room temperature, 1.0×10^5 to 1.0×10^6 CFU/mL. The procedure: (§1) Antimicrobial activity of certain compounds of the present disclosure was tested against Escherichia coli (ATCC 25922), Staphylococcus aureus (ATCC 29213), and Candida albicans (ATCC 10231). The microbial cultures were diluted in sterile saline pH 7 to prepare inocula. Test compounds were titrated by stepwise two-fold dilutions in sterile saline pH 7. A total of 1.0×10^5 to 1.0×10^6 Colony Forming Units (CFU)/mL microbe was added to each tube, mixed by gentle vortexing, and then incubated at room temperature for 1 h. Microbial plating on Petri dishes (Tryptic Soy agar or Saboraud's Dextrose agar) was performed immediately after the designated exposure after neutralization of the test article dilutions in Dey-Engley Broth. Plates were incubated at 37° C., and the numbers of microbes were counted by direct colony count to quantitate the surviving microbes as CFU/mL. Positive growth controls were made with sterile 0.9% saline. Compounds were dissolved phosphate buffered saline (PBS) at pH 7 (using HCl and/or NaOH as needed). All compounds were tested three times.

In the next data set the test system is L929 cells. Nature of the data set: Cytotoxicity CT50 in L929 cells.
Data set [2] relates to Escherichia coli (ATCC 25922). Nature of the data set: Antimicrobial activity (MBC), E. coli. Conditions: saline pH 7, 1 h at room temperature, 1.0×10^5 to 1.0×10^6 CFU/mL. How it is done: as §1
The subject of data set [3] is Staphylococcus aureus (ATCC 29213). As to the kind of experiment: Antimicrobial activity (MBC), S. aureus. Conditions: saline pH 7, 1 h at room temperature, 1.0×10^5 to 1.0×10^6 CFU/mL. How it is done:
as §1

SMILES strings stand for the structures. Converted amounts (≈) assume the structure as drawn.

With `CC1(CCl)COC(=O)N1Cl` (stereo not shown) [Compound 36-01, 3-Chloro-4-(chloromethyl)-4-methyloxazolidin-2-one], the “MBC/MFC C. albicans” value in data set [1] was >128 µg/mL. For the same compound, the “CT50 L929 cells” value with L929 cells was 0.09 mM. The “MBC/MFC E. coli” value in data set [2] amounted to 0.5 µg/mL (≈ 2.72 µM). Moreover, the “MBC/MFC S. aureus” value in data set [3] amounted to 0.5 µg/mL (≈ 2.72 µM).

With `CN1CC(C)(CCl)N(Cl)C1=O` (stereo not shown) [Compound 36-02, 3-Chloro-4-(chloromethyl)-1,4-dimethylimidazolidin-2-one], in data set [1], the “MBC/MFC C. albicans” value came to 512 µg/mL (≈ 2600 µM). For the same compound, the “CT50 L929 cells” value with L929 cells was 0.04 mM. In addition, the “MBC/MFC E. coli” value in data set [2] amounted to 8 µg/mL (≈ 40.6 µM). In data set [3], the “MBC/MFC S. aureus” value amounted to 16 µg/mL (≈ 81.2 µM).

Consider `CC1(CCl)CCC(=O)N1Cl` (stereo not shown) [Compound 36-03, 1-chloro-5-(chloromethyl)-5-methylpyrrolidin-2-one], for which the “MBC/MFC C. albicans” value in data set [1] was >512 µg/mL. The “CT50 L929 cells” value in the data set with L929 cells amounted to 0.026 mM. Further, in data set [2], the “MBC/MFC E. coli” value turned out to be 2 µg/mL (≈ 11 µM). Also, the “MBC/MFC S. aureus” value in data set [3] worked out at 128 µg/mL (≈ 703 µM).

Regarding `CC1(CBr)COC(=O)N1Cl` (stereo not shown) [Compound 36-05, 4-(bromomethyl)-3-chloro-4-methyloxazolidin-2-one], the “MBC/MFC C. albicans” value in data set [1] is 64 µg/mL (≈ 280 µM). The “CT50 L929 cells” value in the data set on L929 cells is 0.1 mM. Further, the “MBC/MFC E. coli” value in data set [2] amounted to 1 µg/mL (≈ 4.38 µM). For the same compound, the “MBC/MFC S. aureus” value in data set [3] was 0.5 µg/mL (≈ 2.19 µM).

Take `O=C1OCC(CCl)(CCl)N1Cl` [Compound 36-06, 3-chloro-4,4-bis(chloromethyl)oxazolidin-2-one]: the “MBC/MFC C. albicans” value in data set [1] is 16 µg/mL (≈ 73.2 µM). The “CT50 L929 cells” value with L929 cells is given as 0.4 mM. In addition, the “MBC/MFC E. coli” value in data set [2] was 1 µg/mL (≈ 4.58 µM). Besides, the “MBC/MFC S. aureus” value in data set [3] amounted to 0.5 µg/mL (≈ 2.29 µM).

`CC1(CF)COC(=O)N1Cl` (stereo not shown) [Compound 36-07, 3-chloro-4-(fluoromethyl)-4-methyl-oxazolidin-2-one]: the “MBC/MFC C. albicans” value in data set [1] is 256 µg/mL (≈ 1530 µM). In addition, the “CT50 L929 cells” value in the data set on L929 cells stood at 0.142 mM. Moreover, the “MBC/MFC E. coli” value in data set [2] is 0.5 µg/mL (≈ 2.98 µM). Further, in data set [3], the “MBC/MFC S. aureus” value worked out at 0.5 µg/mL (≈ 2.98 µM).

In the case of `CC1(CC(F)(F)F)COC(=O)N1Cl` (stereo not shown) [Compound 36-08, 3-chloro-4-(2,2,2-trifluoroethyl)-4-methyl-oxazolidin-2-one], the “MBC/MFC C. albicans” value in data set [1] was 128 µg/mL (≈ 588 µM). In the data set on L929 cells, the “CT50 L929 cells” value is reported as 0.232 mM. For the same compound, the “MBC/MFC E. coli” value in data set [2] came to 4 µg/mL (≈ 18.4 µM). Besides, the “MBC/MFC S. aureus” value in data set [3] was determined as 1 µg/mL (≈ 4.6 µM).
